Converted amounts (≈) assume the structure as drawn.
Assays:
[1] = Rapid antimicrobial susceptibility testing (MIC) by flatbed-scanner imaging of doubling dilutions in a well plate, cefepime; type: cell-based
Source text: The dispensing technology may use well plate 205, which may be a standard 96-, 384-, or 1536-well microtiter plate. Well plate 205 contains doubling dilutions of antimicrobials. Any antimicrobials can be used. Antibiotics are mentioned as an example of an antimicrobial, but any antimicrobial or other treatment agent (e.g. antifungal, antiviral, anti-parasitic) can be used unless context clearly dictates otherwise. The doubling dilution series can be prepared at the time of use, or plates with doubling dilutions can be pre-made and stored with lyophilized antibiotics or with antibiotics in broth that are frozen and thawed before use. […] The positive blood culture broth or dilutions of the positive blood culture broth can be added to the wells using any of several liquid handling devices or manually or through use of an inkjet printer 210 which we determined can quantitatively print out positive blood culture broth.
(§1) Typically positive blood-culture broth has organisms at 5×10^9 colony-forming units per mL. In our experiments, we determined that this could be diluted 5-fold in sterile water and 0.3% tween-20 and this dilution dispensed at 250 nl per well to create a starting inoculum of approximately 2.5×10^7 per mL in wells in a 384 well plate containing a volume of 10 μl. […]

E. coli = experiment: Rapid antimicrobial susceptibility testing (MIC) by flatbed-scanner imaging of doubling dilutions in a well plate, gentamicin; type: cell-based; parameters: unit not given here; details: 37° C.
Source text: The dispensing technology may use well plate 205, which may be a standard 96-, 384-, or 1536-well microtiter plate. Well plate 205 contains doubling dilutions of antimicrobials. Any antimicrobials can be used. Antibiotics are mentioned as an example of an antimicrobial, but any antimicrobial or other treatment agent (e.g. antifungal, antiviral, anti-parasitic) can be used unless context clearly dictates otherwise. The doubling dilution series can be prepared at the time of use, or plates with doubling dilutions can be pre-made and stored with lyophilized antibiotics or with antibiotics in broth that are frozen and thawed before use. In embodiments, 50 μl of broth are added to wells in well plate 205 and desired two-fold dilutions of antibiotics are added to wells using inkjet printing technology 210 as described in WO 2017/218202 A1, the entire contents of which are incorporated by reference for all purposes. In other embodiments, antibiotics can be added either manually or with any of several suitable liquid handling devices. Positive blood culture broth is then added to the microtiter wells. The positive blood culture broth or dilutions of the positive blood culture broth can be added to the wells using any of several liquid handling devices or manually or through use of an inkjet printer 210 which we determined can quantitatively print out positive blood culture broth.
as §1
We have made use of a CCD flatbed scanner to scan plates. In our example, the plates are incubated in a separate incubator and placed on a plate bed scanner at different time points for reading. Using a flatbed scanner, we have determined that accurate AST results can be obtained with incubation times of 1.5 hours or less. […]

Compound	MIC ([1]; 3 hours of incubation (graph 630)) [µg/mL]	MIC ([1]; 4 hours of incubation (graph 640)) [µg/mL]	MIC (E. coli; 2 hours of incubation (graph 520))	MIC (E. coli; 3 hours of incubation (graph 530))	MIC (E. coli; 4 hours of incubation (graph 540))
CO/N=C(\C(=O)N[C@@H]1C(=O)N2C(C(=O)[O-])=C(C[N+]3(C)CCCC3)CS[C@H]12)c1csc(N)n1 [cefepime]	31 (≈ 64.5 µM)	31 (≈ 64.5 µM)	–	–	–
gentamicin	–	–	1.0	1.0	1.0

Reference: patent US12655460B2, “Rapid antimicrobial susceptibility testing by image analysis” (Beth Israel Deaconess Medical Center, Inc., priority 2019, dated 2026)
